One assay deals with T1, human Nav1.7 channels (Homo sapiens, UniProt Q15858).
T1 construct: expressed in transfected cells; host or cells: CHO
The assay is described as follows: FRET Assay (Method A), human Nav1.7. Format: cell-based. Here is the method:
(§1) The ability of the aryl substituted carboxamid derivatives of the formula (I) to inhibit the NaV1.3, Nav1.7 and Nav1.5 channels was measured by Fluorescence Resonance Energy Transfer (FRET) assay and electrophysiology assay described below.
This screen was used to determine the effects of compounds on human NaV1.3, human Nav1.7, and human Nav1.5 channels, utilising the cell imaging technology by Hamamatsu Photonics's Functional Drug Screening System (FDSS). The change of membrane potential was monitored with fluorescent membrane potential dye pair, oxonol (DiSBAC2(3)) and coumarin (CC2-DMPE), using FRET technology.
CHO cells expressing human NaV1.7 channels were grown in T225 flasks, in a 5% CO2 humidified incubator to about 80% confluence. Media composition consisted of HAM/F12 with Glutamax I, 10% FCS, 100 units/ml Penicillin and 100 microgram/ml Hygromycin.
Protocol: • Seeded each cell lines (1.5×10^4 cells/well) into poly-D-lysine coated 384-well plates prior to experimentation. • Incubated at 37° C. in 5% CO2 for 24 hours. • Washed each well with buffer #1 (140 mM NaCl, 4.5 mM KCl, 10 mM D-Glucose, 2 mM CaCl2, 1 mM MgCl2, 10 mM HEPES, pH 7.4 adjusted with NaOH) twice. • Added 1st loading solution containing 5 microM CC2-DMPE and 0.02% Pluronic F-127 in buffer #1. • Incubated the plate at room temperature in dark for 0.5 hours. • Washed each well with buffer #2 (160 mM Choline, 10 mM D-Glucose, 0.1 mM CaCl2, 1 mM MgCl2, 10 mM HEPES, pH 7.4 adjusted with KOH) twice. • Added 2nd loading solution containing 15 microM DiSBAC2(3), 0.5 mM VABSC-1, 10 microM veratridine and 0.004% Pluronic F-127 in buffer #2. • Added compound solutions into the assay plate for 30 minutes under the dark at room temperature. • Measured the activity by FDSS.
(§2) The data were analyzed and reported as normalized ratios of intensities measured in the 465 nm and 575 nm channels. […]
(§3) “FI465B”=the mean of fluorescence intensity as baseline (before Na+ ligand addition) at 465 nm
“FI575B”=the mean of fluorescence intensity as baseline (before Na+ ligand addition) at 575 nm […]

The target of a further assay is T2, Human HERG (Homo sapiens, UniProt Q12809).
T2 construct: expressed in transfected cells; host or cells: HEK293S (membrane homogenate)
T2 sequence (Q12809 whole entry): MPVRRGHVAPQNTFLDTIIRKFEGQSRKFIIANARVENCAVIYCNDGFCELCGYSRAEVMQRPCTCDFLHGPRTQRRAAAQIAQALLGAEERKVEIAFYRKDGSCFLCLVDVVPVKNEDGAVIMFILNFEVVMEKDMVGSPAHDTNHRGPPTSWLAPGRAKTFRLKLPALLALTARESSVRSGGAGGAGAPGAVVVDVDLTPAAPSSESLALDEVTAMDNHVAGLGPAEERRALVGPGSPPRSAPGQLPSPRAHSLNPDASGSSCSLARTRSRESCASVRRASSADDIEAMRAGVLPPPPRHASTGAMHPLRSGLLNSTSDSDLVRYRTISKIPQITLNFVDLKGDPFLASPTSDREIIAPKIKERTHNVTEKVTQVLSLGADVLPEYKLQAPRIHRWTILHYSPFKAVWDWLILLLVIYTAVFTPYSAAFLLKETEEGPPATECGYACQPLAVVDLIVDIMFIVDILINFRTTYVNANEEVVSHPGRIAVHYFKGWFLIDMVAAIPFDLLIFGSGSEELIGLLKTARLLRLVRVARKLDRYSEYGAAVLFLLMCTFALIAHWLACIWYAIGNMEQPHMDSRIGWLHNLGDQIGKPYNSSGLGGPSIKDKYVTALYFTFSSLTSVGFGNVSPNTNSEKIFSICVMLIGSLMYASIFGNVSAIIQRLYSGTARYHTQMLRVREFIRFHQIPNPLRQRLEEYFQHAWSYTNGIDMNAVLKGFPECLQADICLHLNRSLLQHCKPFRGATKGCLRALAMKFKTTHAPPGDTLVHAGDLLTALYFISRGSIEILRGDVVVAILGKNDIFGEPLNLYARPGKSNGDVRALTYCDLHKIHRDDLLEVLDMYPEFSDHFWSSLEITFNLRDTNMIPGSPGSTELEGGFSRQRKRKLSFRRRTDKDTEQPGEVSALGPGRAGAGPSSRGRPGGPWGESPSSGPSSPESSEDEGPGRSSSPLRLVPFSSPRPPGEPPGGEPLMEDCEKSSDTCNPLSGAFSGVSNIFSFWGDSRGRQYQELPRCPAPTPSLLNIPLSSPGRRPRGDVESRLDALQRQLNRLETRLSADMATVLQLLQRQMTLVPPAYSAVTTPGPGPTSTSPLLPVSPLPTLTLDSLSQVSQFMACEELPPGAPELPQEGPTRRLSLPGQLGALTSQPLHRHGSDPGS
The assay is described as follows: Human dofetilide binding assay. The method, then: Human Dofetilide Binding Assay
Human HERG transfected HEK293S cells were prepared and grown in-house. The collected cells were suspended in 50 mM Tris-HCl (pH 7.4 at 4° C.) and homogenized using a hand held Polytron PT 1200 disruptor set at full power for 20 sec on ice. The homogenates were centrifuged at 48,000×g at 4° C. for 20 min. The pellets were then resuspended, homogenized, and centrifuged once more in the same manner. The final pellets were resuspended in an appropriate volume of 50 mM Tris-HCl, 10 mM KCl, 1 mM MgCl2 (pH 7.4 at 4° C.), homogenized, aliquoted and stored at −80° C. until use. An aliquot of membrane fractions was used for protein concentration determination using BCA protein assay kit (PIERCE) and ARVOsx plate reader (Wallac). Binding assays were conducted in a total volume of 30 microL in 384-well plates. The activity was measured by PHERAstar (BMG LABTECH) using fluorescence polarization technology. Ten microL of test compounds were incubated with 10 microL of fluorescence ligand (6 nM Cy3B tagged dofetilide derivative) and 10 microL of membrane homogenate (6 microg protein) for 120 minutes at room temperature. Nonspecific binding was determined by 10 microM E4031 at the final concentration.

A further assay deals with T3, human NaV1.3 channels (Homo sapiens, UniProt Q9NY46).
T3 construct: expressed in transfected cells; host or cells: HEK293
T3 sequence (Q9NY46 whole entry): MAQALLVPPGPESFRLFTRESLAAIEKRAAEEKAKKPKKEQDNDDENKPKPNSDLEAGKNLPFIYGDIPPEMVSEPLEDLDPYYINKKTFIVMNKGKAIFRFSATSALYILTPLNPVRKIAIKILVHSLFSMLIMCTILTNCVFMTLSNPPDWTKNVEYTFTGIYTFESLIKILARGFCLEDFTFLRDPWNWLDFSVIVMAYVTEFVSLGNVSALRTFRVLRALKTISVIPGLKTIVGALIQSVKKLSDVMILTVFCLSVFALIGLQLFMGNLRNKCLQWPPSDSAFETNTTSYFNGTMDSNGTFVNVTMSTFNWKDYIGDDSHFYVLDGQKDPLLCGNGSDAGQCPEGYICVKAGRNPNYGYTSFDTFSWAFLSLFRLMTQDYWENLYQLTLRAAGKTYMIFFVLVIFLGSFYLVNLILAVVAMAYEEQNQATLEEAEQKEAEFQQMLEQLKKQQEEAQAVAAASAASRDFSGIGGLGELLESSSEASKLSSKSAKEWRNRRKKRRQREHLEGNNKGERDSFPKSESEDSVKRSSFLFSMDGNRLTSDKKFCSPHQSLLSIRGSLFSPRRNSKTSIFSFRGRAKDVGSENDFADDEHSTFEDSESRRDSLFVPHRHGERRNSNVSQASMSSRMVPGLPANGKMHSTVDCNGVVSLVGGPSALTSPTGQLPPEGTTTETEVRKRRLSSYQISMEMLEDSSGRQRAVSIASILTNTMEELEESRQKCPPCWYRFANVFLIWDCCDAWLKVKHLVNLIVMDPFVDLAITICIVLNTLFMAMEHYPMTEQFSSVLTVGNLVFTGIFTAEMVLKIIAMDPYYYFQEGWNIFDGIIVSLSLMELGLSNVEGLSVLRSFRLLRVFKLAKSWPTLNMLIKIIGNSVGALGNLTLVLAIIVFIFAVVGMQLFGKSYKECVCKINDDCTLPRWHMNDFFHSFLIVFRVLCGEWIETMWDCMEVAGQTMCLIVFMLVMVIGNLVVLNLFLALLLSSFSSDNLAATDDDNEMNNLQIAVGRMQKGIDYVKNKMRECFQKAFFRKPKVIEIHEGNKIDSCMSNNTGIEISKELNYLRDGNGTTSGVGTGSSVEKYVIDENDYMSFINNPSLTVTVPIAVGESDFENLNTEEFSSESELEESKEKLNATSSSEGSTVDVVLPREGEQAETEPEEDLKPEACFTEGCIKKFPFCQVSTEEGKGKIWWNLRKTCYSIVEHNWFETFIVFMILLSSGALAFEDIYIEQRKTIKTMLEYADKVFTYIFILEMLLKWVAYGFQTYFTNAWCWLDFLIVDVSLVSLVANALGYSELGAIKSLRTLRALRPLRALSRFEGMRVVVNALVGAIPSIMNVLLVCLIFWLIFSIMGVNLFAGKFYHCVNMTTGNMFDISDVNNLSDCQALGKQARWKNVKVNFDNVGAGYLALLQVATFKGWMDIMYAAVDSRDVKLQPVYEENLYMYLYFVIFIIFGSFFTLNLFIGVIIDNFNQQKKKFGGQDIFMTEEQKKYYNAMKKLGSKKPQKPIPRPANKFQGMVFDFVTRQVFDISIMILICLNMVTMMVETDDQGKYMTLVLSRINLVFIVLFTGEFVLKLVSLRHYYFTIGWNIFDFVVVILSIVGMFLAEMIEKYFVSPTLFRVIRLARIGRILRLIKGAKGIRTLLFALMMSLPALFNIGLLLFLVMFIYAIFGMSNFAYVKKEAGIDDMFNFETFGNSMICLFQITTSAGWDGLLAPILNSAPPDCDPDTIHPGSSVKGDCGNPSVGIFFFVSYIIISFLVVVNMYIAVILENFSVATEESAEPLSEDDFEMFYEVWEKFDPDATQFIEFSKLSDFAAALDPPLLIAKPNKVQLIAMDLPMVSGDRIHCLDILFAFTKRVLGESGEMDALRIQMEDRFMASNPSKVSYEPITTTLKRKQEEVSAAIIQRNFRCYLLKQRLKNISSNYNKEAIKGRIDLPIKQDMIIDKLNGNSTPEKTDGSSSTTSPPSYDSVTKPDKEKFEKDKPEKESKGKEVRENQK
Briefly: FRET Assay (Method A), human NaV1.3. Format: cell-based. The settings on record: read-out: against Nav1.3 in FRET Assay (Method A). Here is the method:
as §1
This screen was used to determine the effects of compounds on human NaV1.3, human Nav1.7, and human Nav1.5 channels, utilising the cell imaging technology by Hamamatsu Photonics's Functional Drug Screening System (FDSS). The change of membrane potential was monitored with fluorescent membrane potential dye pair, oxonol (DiSBAC2(3)) and coumarin (CC2-DMPE), using FRET technology. […]
as §2, §3
“FI575B”=the mean of fluorescence intensity as baseline (before Na+ ligand addition) at 575 nm
“FI465Max”=maximum fluorescence intensity at 465 nm after Na+ stimulation
“FI575 Min”=minimum fluorescence intensity at 575 nm after Na+ stimulation
This analysis was performed using a computerized specific program designed for FDSS generated data. Fluorescence ratio values were plotted using XLfit to determine an IC50 value for each compound.

[1] abbreviates: Table 5, method A or B not stated, read-out: IC50 in the Nav1.7 FRET Assay.

The structures appear in SMILES notation. Read-outs that look alike come from different tables or passages of the source.

T1 sequence (Q15858 whole entry): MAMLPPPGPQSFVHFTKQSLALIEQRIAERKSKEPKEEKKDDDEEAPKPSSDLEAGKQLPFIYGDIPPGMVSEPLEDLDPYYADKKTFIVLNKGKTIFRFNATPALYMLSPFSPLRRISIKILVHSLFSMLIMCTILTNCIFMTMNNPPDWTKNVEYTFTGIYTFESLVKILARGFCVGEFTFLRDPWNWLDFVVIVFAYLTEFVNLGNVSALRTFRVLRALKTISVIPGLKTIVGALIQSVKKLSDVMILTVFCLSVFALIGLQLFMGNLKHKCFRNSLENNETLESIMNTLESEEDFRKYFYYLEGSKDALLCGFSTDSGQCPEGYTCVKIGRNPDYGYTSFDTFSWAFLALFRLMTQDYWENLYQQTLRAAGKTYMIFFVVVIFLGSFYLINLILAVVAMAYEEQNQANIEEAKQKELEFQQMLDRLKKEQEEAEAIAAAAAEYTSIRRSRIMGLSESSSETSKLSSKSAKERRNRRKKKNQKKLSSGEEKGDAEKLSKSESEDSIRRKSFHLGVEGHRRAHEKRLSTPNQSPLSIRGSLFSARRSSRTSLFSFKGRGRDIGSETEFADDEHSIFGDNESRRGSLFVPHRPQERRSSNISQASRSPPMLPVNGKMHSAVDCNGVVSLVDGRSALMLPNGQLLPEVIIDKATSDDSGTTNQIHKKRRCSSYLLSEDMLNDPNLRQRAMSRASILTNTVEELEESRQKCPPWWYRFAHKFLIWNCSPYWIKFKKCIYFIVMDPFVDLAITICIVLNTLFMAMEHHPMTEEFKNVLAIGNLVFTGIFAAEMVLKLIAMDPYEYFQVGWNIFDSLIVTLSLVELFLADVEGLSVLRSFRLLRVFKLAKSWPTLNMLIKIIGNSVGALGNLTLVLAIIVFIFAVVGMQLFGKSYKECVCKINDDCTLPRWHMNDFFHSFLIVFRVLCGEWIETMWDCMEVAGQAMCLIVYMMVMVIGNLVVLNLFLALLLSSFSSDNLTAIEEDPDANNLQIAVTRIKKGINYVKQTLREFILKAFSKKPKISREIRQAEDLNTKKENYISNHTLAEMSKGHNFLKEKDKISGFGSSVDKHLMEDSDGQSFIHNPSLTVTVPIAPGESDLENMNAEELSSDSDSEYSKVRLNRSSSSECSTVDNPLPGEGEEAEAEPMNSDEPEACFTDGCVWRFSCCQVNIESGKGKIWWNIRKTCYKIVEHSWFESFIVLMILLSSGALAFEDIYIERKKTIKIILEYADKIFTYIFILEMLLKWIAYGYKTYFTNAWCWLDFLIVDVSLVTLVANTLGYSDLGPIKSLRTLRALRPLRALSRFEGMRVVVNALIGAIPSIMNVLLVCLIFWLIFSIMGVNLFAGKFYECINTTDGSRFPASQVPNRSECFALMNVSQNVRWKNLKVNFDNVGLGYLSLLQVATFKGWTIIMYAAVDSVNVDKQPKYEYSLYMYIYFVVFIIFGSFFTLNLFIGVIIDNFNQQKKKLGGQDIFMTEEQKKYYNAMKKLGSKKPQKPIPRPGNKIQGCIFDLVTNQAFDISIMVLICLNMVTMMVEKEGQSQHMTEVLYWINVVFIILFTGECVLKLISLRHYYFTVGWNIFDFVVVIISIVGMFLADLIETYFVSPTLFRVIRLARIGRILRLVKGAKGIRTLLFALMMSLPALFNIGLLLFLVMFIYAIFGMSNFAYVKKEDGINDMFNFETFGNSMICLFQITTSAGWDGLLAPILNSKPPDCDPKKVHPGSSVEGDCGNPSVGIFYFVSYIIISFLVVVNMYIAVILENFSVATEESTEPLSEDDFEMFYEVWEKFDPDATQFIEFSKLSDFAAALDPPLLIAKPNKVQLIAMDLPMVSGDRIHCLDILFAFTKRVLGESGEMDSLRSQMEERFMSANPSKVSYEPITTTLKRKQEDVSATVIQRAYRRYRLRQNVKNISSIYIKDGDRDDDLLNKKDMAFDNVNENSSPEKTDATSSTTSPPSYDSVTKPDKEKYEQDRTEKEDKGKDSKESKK

Consider `O=C(c1cnc2ccccc2c1)N1CCC(Oc2ccc(Cl)cc2)CC1` [Example 10, (4-(4-chlorophenoxy)piperidin-1-yl)(quinolin-3-yl) methanone], for which the IC50 at human Nav1.7 channels (setting [1]) was 360 nM; at Human HERG it was 7910 nM.
Turning to `O=c1[nH]ccnc1CN1CCC(COc2ccccc2)CC1` [Example 198 in WO 2003/084948, 3-((4-(phenoxymethyl)piperidin-1-yl)methyl)pyrazin-2(1H)-one, reference compound], the IC50 on human NaV1.3 channels is above 30000 nM; on human Nav1.7 channels (read-out: against Nav1.7 in FRET Assay (Method A)), 15000 nM.
For the compound `Clc1ccc(OC2CCN(Cc3cnc4ccccc4c3)CC2)cc1` [Example 726], the IC50 turned out to be 470 nM on human Nav1.7 channels (setting [1]) and 280 nM on Human HERG.

Values taken from patent US9051296B2, “Aryl carboxamide derivatives as TTX-S blockers” (RaQualia Pharma Inc., priority 2009, dated 2015).
